Tests used:
TNF-α = experiment: TNFa release in a culture of cortical neurons and microglia after Aβ1-42 injury (ELISA); assay type: cell-based, rat; settings: for TNFa (% of vehicle group): control 100.00, Aβ1-42 alone 126.75; for level of TNFα (in words): Aβ1-42 (5 μM)
Experimental: (§1) Rat cortical neurons are cultured as described by Callizot et al., (2013) with modifications. Briefly pregnant female rat (Wistar) of 15 days of gestation are killed. Foetuses are collected and immediately placed in ice-cold L15 Leibovitz medium with a 2% penicillin (10,000 U/mL) and streptomycin (10 mg/ml) solution (PS) and 1% bovine serum albumin (BSA). Cortex are treated for 20 min at 37° C. with a trypsin- EDTA solution at a final concentration of 0.05% trypsin and 0.02% EDTA. The dissociation is stopped by addition of Dulbecco's modified Eagle's medium (DMEM) with 4.5 g/L of glucose, containing DNAse I grade II (final concentration 0.5 mg/ml) and 10% fetal calf serum (FCS). Cells are mechanically dissociated by three forced passages through the tip of a 10-ml pipette. Cells are then centrifuged at 515×g for 10 min at 4° C. The supernatant is discarded, and the pellet is resuspended in a defined culture medium consisting of Neurobasal medium with a 2% solution of B27 supplement, 2 mmol/litter of L-glutamine, 2% of PS solution, 10 ng/mL of brain-derived neurotrophic factor (BDNF), 2% of heat-inactivated horse serum, 2% of heat-inactivated FCS, 1 g/L of glucose, 1 mM of sodium pyruvate, and 100 μM of non-essential amino acids. Viable cells are counted in a Neubauer cytometer, using the trypan blue exclusion test. The cells are seeded at a density of 45,000 per well in 96-well plates (for immunostaining) precoated with poly-L-lysine and are cultured at 37° C. in an air (95%)-CO2 (5%) incubator. For 96 wells plates, only 60 wells are used. The wells of first and last lines and columns are not used (to avoid the edge effect) and are filled with sterile water. The medium is changed every 2 days.
(§2) On day 10 of culture, queuine is dissolved in the culture medium and pre-incubated with primary cortical neurons for 24H, before Aβ1-42 exposure. Then on day 11 of culture, the cortical neurons are intoxicated with AB solutions. The Aβ1-42 preparation is done following the procedure described by Callizot et al., (2013). Briefly, Aβ1-42 peptide are dissolved in the defined culture medium mentioned above, at an initial concentration of 40 μmol/L. This solution is gently agitated for 3 days at 37° C. in the dark and immediately used after being properly diluted in culture medium to the concentration used (5 μM, 0.5μM oligomers).
(§3) Aβ1-42 preparation is added to a final concentration of 5μM (0.5 μM oligomers, ABO) diluted in control medium in presence of queuine, for 72 hours.
72 hours after Aβ1-42 application, the cell culture supernatant are collected cytokine quantification (e.g. TNFα) and the cortical neurons are fixed by a cold solution of ethanol (95%) and acetic acid (5%) for 5 min at −20° C. After permeabilization with 0.1% of saponin, cells are incubated for 2 hours with: • a) chicken polyclonal antibody antimicrotubule-associated-protein 2 (MAP-2) at dilution of 1/1000 in PBS containing 1% fetal calf serum and 0.1% of saponin (this antibody stains specifically cell bodies and neurites, allowing study of neuronal cell death and neurite network). • b) mouse monoclonal anti-tau phosphor (Thr212, Ser214) at the dilution of 1/100 in PBS containing 1% foetal calf serum and 0.1% of saponin. • c) rabbit polyclonal antibody anti-SIRP alpha/CD172a at dilution of 1/400 in PBS containing 1% fetal calf serum and 0.1% of saponin (this antibody stains specifically the microglia and is allow to evaluate the activation of the microglial cells).
In order to assess the activation of microglia in the cell culture, the levels of TNF-α are quantified in cell culture supernatant after 72h (end of the culture) by ELISA.

Tau = experiment: Hyperphosphorylation of Tau in neuron cytoplasm (AT100, overlapping Tau/MAP-2) after Aβ1-42 intoxication; assay type: cell-based, rat
Experimental: as §1, §2, §3
Each compound is tested on 1 culture in a 96 well plate (6 wells per conditions). For 96 wells plates, only 60 wells are used. The wells of first and last lines and columns are not used (to avoid the edge effect) and are filled with sterile water. Queuine is added 24h before Aβ1-42 application. The following conditions are assessed:
(§4) 72 hours after Aβ1-42 application, the cell culture supernatant are collected cytokine quantification (e.g. TNFα) and the cortical neurons are fixed by a cold solution of ethanol (95%) and acetic acid (5%) for 5 min at −20° C. […]

Rat cortical neurons [1] = experiment: Total neurite network (length of MAP-2 positive neurite) after Aβ1-42 intoxication; assay type: cell-based
Experimental: as §1
as §2, with “oligomers). […]” for “oligomers).”
(§5) Each compound is tested on 1 culture in a 96 well plate (6 wells per conditions). […] The following conditions are assessed:
as §4

Rat cortical neurons [2] = experiment: Neuron survival (number of MAP-2 positive neurons) after Aβ1-42 intoxication; assay type: cell-based; settings: for survival of neurons: p<0.05
Experimental: as §1
as §2, with “oligomers). […]” for “oligomers).”
as §5, §4

[3] = queuine 300 nM added 24h before Aβ1-42 (5 μM, 72 H), p<0.05
[4] = queuine 1 μM added 24h before Aβ1-42 (5 μM, 72 H), p<0.05
[5] = queuine 3 μM added 24h before Aβ1-42 (5 μM, 72 H), p<0.05
[6] = BDNF 50 ng/ml, Aβ1-42 (5 μM, 72 H)

## 7-(3,4-trans-4,5-cis-dihydroxy-1-cyclopenten-3-ylaminomethyl)-7-deazaguanine [queuine]
TNF-α; Aβ1-42 (5 μM, 72 H) + queuine (300 nM)
  TNFa (% of vehicle group): 105.54 % of vehicle group
TNF-α; Aβ1-42 (5 μM, 72 H) + queuine (1 μM)
  TNFa (% of vehicle group): 87.33 % of vehicle group
TNF-α; Aβ1-42 (5 μM, 72 H) + queuine (3 μM)
  TNFa (% of vehicle group): 93.32 % of vehicle group
TNF-α; queuine 300 nM, p<0.05
  level of TNFα (in words): restores the level of TNFα
TNF-α; queuine 1 μM, p<0.05
  level of TNFα (in words): restores the level of TNFα
TNF-α; queuine 3 μM, p<0.05
  level of TNFα (in words): restores the level of TNFα
Tau; queuine 100 nM added 24h before Aβ1-42 (5 μM, 72 H), p<0.05
  Tau hyperphosphorylation: restores the level of hyperphosphorylation of Tau
Tau; [3]
  Tau hyperphosphorylation: restores the level of hyperphosphorylation of Tau
Tau; [4]
  Tau hyperphosphorylation: restores the level of hyperphosphorylation of Tau
Tau; [5]
  Tau hyperphosphorylation: restores the level of hyperphosphorylation of Tau
Rat cortical neurons [1]; [3]
  neurite network: significantly restores the neurite network
Rat cortical neurons [1]; [4]
  neurite network: significantly restores the neurite network
Rat cortical neurons [1]; [5]
  neurite network: significantly restores the neurite network
Rat cortical neurons [2]; queuine 100 nM added 24h before Aβ1-42 (5 μM, 72 H)
  survival of neurons: significantly restores the survival of neurons
Rat cortical neurons [2]; queuine 300 nM added 24h before Aβ1-42 (5 μM, 72 H)
  survival of neurons: significantly restores the survival of neurons
Rat cortical neurons [2]; queuine 1 μM added 24h before Aβ1-42 (5 μM, 72 H)
  survival of neurons: significantly restores the survival of neurons

B1: BDNF: brain-derived neurotrophic factor, used at 50 ng/ml as positive control and reference compound (protein, UniProt P23560 19-247, looked up)
Neurotrophic factor BDNF …: APMKEANIRGQGGLAYPGVRTHGTLESVNGPKAGSRGLTSLADTFEHVIEELLDEDQKVRPNEENNKDADLYTSRVMLSSQVPLEPPLLFLLEEYKNYLDAANMSMRVRRHSDPARRGELSVCDSISEWVTAADKKTAVDMSGGTVTVLEKVPVSKGQLKQYFYETKCNPMGYTKEGCRGIDKRHWNSQCRTTQSYVRALTMDSKKRIGWRFIRIDTSCVCTLTIKRGR
TNF-α; Aβ1-42 (5 μM, 72 H) + BDNF (50 ng/ml)
  TNFa (% of vehicle group): 102.14 % of vehicle group
TNF-α; BDNF 50 ng/ml
  level of TNFα (in words): decreases the level of TNFα
Tau; [6]
  Tau hyperphosphorylation: decreases Tau hyperphosphorylation
Rat cortical neurons [1]; [6]
  neurite network: restores the neurite network
Rat cortical neurons [2]; [6]
  level neuronal staining for MAP-2 (number of cortical neurons): restores the level neuronal staining for MAP-2

Reference: patent publication US20210052589A1, “COMPOUNDS FOR TREATING ALZHEIMER'S DISEASE” (Amabiotics, priority 2018, published 2021)
